# Measurements from patent US20010046979A1, “Acidic antimicrobial compositions for treating food and food contact surfaces and methods of use thereof” (priority 2000, published 2001).
# Legend:
# Test in all cases: Antimicrobial effectiveness on inoculated broccoli, 5 minute soak
# Format in all cases: cell-based
# [1] = test system: E-Coli; conditions: 5 g/L
# Experimental: (§1) Concentrated powdered compositions E and F are prepared and dissolved in deionized and hard water (10 gpg) at a level of 5 grams of composition per Liter of water to form a dilute aqueous treatment composition. The dilute aqueous treatment compositions are then tested on broccoli samples for antimicrobial effectiveness.
# (§2) A Broccoli sample is innoculated with a bacterial solution containing ≧10^8 cfu bacterium per ml. Application of 100 microliters of this solution to the surface results in approximately 10^6 to 10^7 cfu per broccoli piece. Equal amounts of small spots are deposited to facilitate drying. After 30 minutes dry time the sample is placed in 50 ml of the dilute aqueous treatment composition for a 5 minute soak. After the 5 minute soak the sample is transferred to 50 ml of a neutralizer before being stomached for 2 minutes and subsequently plated to enumerate the organisms surviving the treatments. Suprisingly the acid-anionic system maintained equal or better antimicrobial activity vs. 200 ppm hypochlorite bleach over the range from 0 to 10 gpg, as shown by the data in the following Tables.
# [2] = test system: Staph aureus; conditions: 5 g/L
# Experimental: as §1, §2
# [3] = test system: Listeria; conditions: 0 gpg water
# Experimental: as §1, §2
# (§3) Composition E is further tested on Salmonella and Listeria on broccoli with similar results.
# [4] = test system: Salmonella; conditions: 0 gpg water
# Experimental: as §1, §2, §3
structure (smiles),measurement,setting,value
"[Na+].[O-]Cl [200 ppm NaOCl, NaOCl]",Log Reduction (greater than water alone) in 5 minutes,[1]; 0 gpg water,0.86 log
same,Log Reduction in 5 minutes,[1]; 0 gpg water,1.2 log
same,Log Reduction (greater than water alone) in 5 minutes,[1]; 10 gpg water,0.93 log
same,Log Reduction in 5 minutes,[1]; 10 gpg water,1.3 log
same,Log Reduction (greater than water alone) in 5 minutes,[2]; 0 gpg water,1.08 log
same,Log Reduction in 5 minutes,[2]; 0 gpg water,1.5 log
same,Log Reduction (greater than water alone) in 5 minutes,[2]; 10 gpg water,0.89 log
same,Log Reduction in 5 minutes,[2]; 10 gpg water,1.3 log
same,Log Reduction (greater than water alone) in 5 minutes,[3],0.77 log
same,Log Reduction (greater than water alone) in 5 minutes,[4],0.67 log
